Measured values as given in patent US10098909B2 (UNIVERSITY OF SOUTH FLORIDA, priority 2016, dated 2018).

Key:
Fmr1 KO mice [1] = conditions: dfmr1 mutant Drosophila and Fmr1 KO mice; cited from earlier work
GSK3β [2] = test: GSK3β phosphorylation in Fmr1 KO mouse embryonic fibroblasts (WB); type: cell-based; conditions: 60 min
Protocol: FIGS. 5A-5B. […] Many neurodegenerative disorders, including FXS, have been associated with enhanced GSK activity (14-16). Fmr1 KO mouse embryonic fibroblasts (Fmr1 KO MEF) have elevated levels of stimulatory GSK3β ([…]) phosphorylation compared to wild-type MEF (both cell lines kindly provided by Dr. David Nelson, Baylor College of Medicine). […] Cell lysates were then prepared and subjected to WB analysis using specific phospho-GSK3β (pGSK3β)^Tyr216, pGSK3β^Ser9 and total GSK antibodies.

[3] = In vivo plasma and brain lithium pharmacokinetics after oral gavage (AAS); parameters: species or system Sprague-Dawley rats; conditions: for time of plasma lithium peak: sampled at 2, 24, 48, 72 h; for plasma and brain lithium level profile after oral dosing: summary of FIG. 2, up to 48 h
GSK3β [4] = test: GSK3β Tyr216 phosphorylation in brain homogenates of Fmr1 KO mice (WB); type: in vivo, mouse; conditions: 28 mg/kg/day i.p., 5 days
Protocol: (§1) (6A) Mouse brain homogenates were then prepared from cerebral cortex and hippocampus and analyzed by WB with specific pGSK3α^Tyr279, pGSK3β^Tyr216 and total GSK antibodies.

GSK3α = GSK3α Tyr279 phosphorylation in brain homogenates of Fmr1 KO mice (WB); type: in vivo, mouse; conditions: 28 mg/kg/day i.p., 5 days
Protocol: as §1

[5] = tested on: Human neural stem cells (H9-Derived); test: Human neural stem cell differentiation (MAP2, GFAP; immunofluorescence and WB); type: cell-based; conditions: 10 mM, 14 days
Protocol: These cells were then permeabilized, washed, incubated with mouse anti-MAP2 monoclonal antibody or rabbit anti-GFAP polyclonal antibody overnight at 4° C., stained with Alexa Fluor® 488 (green) and Alexa Fluor® 594 (red), and visualized by confocal microscopy. DAPI (blue) was used to detect nuclear DNA.

[6] = tested on: Wild-type mouse neuroblastoma (N2a) cells; test: Neuronal cell differentiation in N2a cells (β-tubulin III, phospho-synapsin I; immunofluorescence and WB); type: cell-based; conditions: 10 mM, 24 h
Protocol: These cells were then permeabilized with 0.05% Triton X-100 for 5 min, washed, and incubated with mouse anti-β-tubulin III monoclonal antibody ([…]™), and rabbit anti-phospho-synapsin I (Ser^62, Ser^67) polyclonal antibody (EMD Millipore) overnight at 4° C. Alexa Fluor® 488 Goat anti-mouse IgG (green) and Alexa Fluor® 594 Donkey anti-rabbit IgG (red, Life Technologies) were used to detect β-tubulin III and phospho-synapsin I signals respectively. Confocal images were taken by Olympus Fluoview™ FV1000 laser scanning confocal microscope (Tokyo, Japan).

Fmr1 KO mice [7] = conditions: cited from earlier work
[8] = male rats, 4 mEq/kg lithium, oral gavage

In the case of Cn1cc(C2=C(c3ccc(Cl)cc3Cl)C(=O)NC2=O)c2ccccc21 [SB-216763], the “FXS behavioral phenotypes (hyperactivity, social and cognitive impairment)” value (Fmr1 KO mice [1]) is given as “reverse these behavioral deficits”.

For O=C(O)[C@@H]1CCCN1.O=C([O-])c1ccccc1O.[Li+] [LISPRO], the “stimulatory pGSK3β Tyr216 level” value (GSK3β [2]; Fmr1 KO MEF, 40 μM) was “decreased”, the “total GSK3β level” value (GSK3β [2]; Fmr1 KO MEF, 10, 20 or 40 μM) was “unchanged” and the “inhibitory pGSK3β Ser9 level” value (GSK3β [2]; Fmr1 KO MEF, starting at 10 μM) was “increased”. For the same molecule, the “plasma lithium level at 2 h” value ([3]; male rats, 4 mEq/kg lithium, oral gavage, 2 h) was “elevated”, the “plasma lithium level at 48 h” value [3, 8] was “remained elevated” and the “plasma lithium level at 72 h” value ([3]; male rats, 4 mEq/kg lithium, oral gavage, 72 h) was “almost undetectable”. For the same molecule, the “brain lithium levels at 24 and 48 h” value ([3]; male rats, 4 mEq/kg lithium, oral gavage, brain, 24 and 48 h) was “steady brain levels”, the “time of plasma lithium peak” value [3, 8] was 24 h and the “plasma and brain lithium level profile after oral dosing” value [3] was “nearly steady levels of lithium in plasma and brain for up to 48 h without the initial spike”. The “pGSK3β Tyr216 level in cerebral cortex and hippocampus” value (GSK3β [4]) was “reduced these levels” and the “pGSK3α Tyr279 level in cerebral cortex and hippocampus” value (GSK3α) was “reduced these levels”.

In the case of [Cl-].[Li+] [LiCl], the “GFAP expression (gliogenesis; immunofluorescence and WB, GFAP to β-actin) vs PBS” value (“GFAP expression … vs PBS” for short) [5] is reported as “no significance difference”, the “MAP2 expression (immunofluorescence and WB, MAP2 to β-actin) vs PBS” value (“MAP2 expression … vs PBS” for short) [5] is reported as “no significance difference” and the “neuronal cell differentiation (β-tubulin III and phospho-synapsin I immunofluorescence and WB) vs PBS” value (shortened to “neuronal cell differentiation”) [6] is reported as “no significant difference”.

With O=C([O-])[O-].[Li+].[Li+] [Li2CO3, lithium carbonate] the “GFAP expression … vs PBS” value [5] was “no significance difference”, the “MAP2 expression … vs PBS” value [5] was “no significance difference” and the “plasma lithium level at 48 h” value [3, 8] was “nearly undetectable”. The “brain lithium level at 24 h” value ([3]; male rats, 4 mEq/kg lithium, oral gavage, brain, 24 h) was “concomitant spike”, the “time of plasma lithium peak” value [3, 8] was 24 h and the “plasma and brain lithium level profile after oral dosing” value [3] was “spike in plasma and brain lithium levels at 24 h with considerably lower or undetectable levels at 48 h”. The “neuronal cell differentiation” value [6] was “no significant difference”.

With O=C(O)[C@@H]1CCCN1 [1-proline, L-proline] the “GFAP expression … vs PBS” value [5] was “no significance difference”, the “MAP2 expression … vs PBS” value [5] was “no significance difference” and the “neuronal cell differentiation” value [6] was “no significant difference”.

For Cn1sc(=O)n(Cc2ccccc2)c1=O [TDZD-8], the “FXS behavioral phenotypes (hyperactivity, social and cognitive impairment)” value (Fmr1 KO mice [1]) is listed as “reverse these behavioral deficits”.

B1: BDNF: brain derived neurotrophic factor, a potent modulator of learning and memory, synaptic plasticity and neurogenesis (protein, UniProt P23560 19-247, looked up)
Neurotrophic factor BDNF …: APMKEANIRGQGGLAYPGVRTHGTLESVNGPKAGSRGLTSLADTFEHVIEELLDEDQKVRPNEENNKDADLYTSRVMLSSQVPLEPPLLFLLEEYKNYLDAANMSMRVRRHSDPARRGELSVCDSISEWVTAADKKTAVDMSGGTVTVLEKVPVSKGQLKQYFYETKCNPMGYTKEGCRGIDKRHWNSQCRTTQSYVRALTMDSKKRIGWRFIRIDTSCVCTLTIKRGR
For B1, the “impairment in hippocampal long term potentiation” value (Fmr1 KO mice [7]) is listed as “fully restored”.
